From ChEMBL document CHEMBL1201862, “PubChem BioAssay data set” (2004)
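Briefly, cells in 96-well plates were exposed to five compound concentrations for 48 h, and endpoints were estimated by linear interpolation. GI50: concentration for 50% inhibition of growth.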 Calls of active or inactive are those of the source. Rule as the data show it: active = GI50 up to about 1.1 µM and inactive = higher.

What was measured:
Assay in all cases: NCI tumour cell line growth inhibition, 48 h
786-0 = test system: 786-0
A498 = test system: A498
A549 = test system: A549
ACHN = test system: ACHN
BT-549 = test system: BT-549
CAKI-1 = test system: CAKI-1
COLO 205 = test system: COLO 205
DU-145 = test system: DU-145
EKVX = test system: EKVX
HCC 2998 = test system: HCC 2998
HCT-116 = test system: HCT-116
HCT-15 = test system: HCT-15
HL-60 = test system: HL-60
HOP-62 = test system: HOP-62
HOP-92 = test system: HOP-92
HT-29 = test system: HT-29
Hs-578T = test system: Hs-578T
IGROV-1 = test system: IGROV-1
K562 = test system: K562
KM12 = test system: KM12
LOX IMVI = test system: LOX IMVI
M14 = test system: M14
MCF7 = test system: MCF7
MDA-MB-231 = test system: MDA-MB-231
MDA-MB-435 = test system: MDA-MB-435
MDA-N = test system: MDA-N
Malme-3M = test system: Malme-3M
NCI-H226 = test system: NCI-H226
NCI-H23 = test system: NCI-H23
NCI-H460 = test system: NCI-H460
NCI-H522 = test system: NCI-H522
NCI/ADR-RES = test system: NCI/ADR-RES
OVCAR-3 = test system: OVCAR-3
OVCAR-4 = test system: OVCAR-4
OVCAR-5 = test system: OVCAR-5
OVCAR-8 = test system: OVCAR-8
PC-3 = test system: PC-3
RPMI-8226 = test system: RPMI-8226
RXF 393 = test system: RXF 393
SF-268 = test system: SF-268
SF-295 = test system: SF-295
SF-539 = test system: SF-539
SK-MEL-28 = test system: SK-MEL-28
SK-MEL-2 = test system: SK-MEL-2
SK-MEL-5 = test system: SK-MEL-5
SK-OV-3 = test system: SK-OV-3
SN12C = test system: SN12C
SNB-19 = test system: SNB-19
SNB-75 = test system: SNB-75
SR = test system: SR
SW-620 = test system: SW-620
TK-10 = test system: TK-10
U-251 = test system: U-251
UACC-257 = test system: UACC-257
UACC-62 = test system: UACC-62
UO-31 = test system: UO-31
CCRF-CEM = test system: CCRF-CEM
MOLT-4 = test system: MOLT-4
T47D = test system: T47D

`Cc1cc(Cl)ccc1OCC(=O)Oc1c(Cl)c(Cl)c(Cl)c(Cl)c1Cl` was tested, and the GI50 (786-0) was 29.4 µM (inactive), the GI50 (A498) was 25.6 µM (inactive) and the GI50 (A549) was 25.6 µM (inactive). For the same molecule, the GI50 (ACHN) was 28.2 µM (inactive), the GI50 (BT-549) was 35.9 µM (inactive) and the GI50 (CAKI-1) was 33 µM (inactive). For the same molecule, the GI50 (COLO 205) was 27.8 µM (inactive), the GI50 (DU-145) was 22.4 µM (inactive) and the GI50 (EKVX) was 18.6 µM (inactive). The GI50 (HCC 2998) was 25.2 µM (inactive), the GI50 (HCT-116) was 20.8 µM (inactive) and the GI50 (HCT-15) was 27 µM. For the same molecule, the GI50 (HL-60) was > 100 µM (inactive), the GI50 (HOP-62) was 21.4 µM (inactive) and the GI50 (HOP-92) was 17.3 µM (inactive). For the same molecule, the GI50 (HT-29) was 26.7 µM (inactive), the GI50 (Hs-578T) was 22.6 µM (inactive) and the GI50 (IGROV-1) was 17.4 µM (inactive). The GI50 (K562) was 35.2 µM (inactive), the GI50 (KM12) was 23.2 µM (inactive) and the GI50 (LOX IMVI) was 22.5 µM (inactive). The GI50 (M14) was 26.6 µM (inactive), the GI50 (MCF7) was 26.8 µM (inactive) and the GI50 (MDA-MB-231) was 18 µM (inactive). For the same molecule, the GI50 (MDA-MB-435) was 24.2 µM (inactive), the GI50 (MDA-N) was 26.2 µM (inactive) and the GI50 (Malme-3M) was 19.2 µM (inactive). The GI50 (NCI-H226) was 20.2 µM (inactive), the GI50 (NCI-H23) was 26.4 µM (inactive) and the GI50 (NCI-H460) was 22.6 µM (inactive). For the same molecule, the GI50 (NCI-H522) was 17.9 µM (inactive), the GI50 (NCI/ADR-RES) was 25.4 µM (inactive) and the GI50 (OVCAR-3) was 18.2 µM (inactive). For the same molecule, the GI50 (OVCAR-4) was 27.3 µM (inactive), the GI50 (OVCAR-5) was 24.4 µM (inactive) and the GI50 (OVCAR-8) was 26 µM (inactive). The GI50 (PC-3) was 28.2 µM (inactive), the GI50 (RPMI-8226) was 21.9 µM (inactive) and the GI50 (RXF 393) was 18.7 µM (inactive). The GI50 (SF-268) was 30.5 µM (inactive), the GI50 (SF-295) was 24.1 µM (inactive) and the GI50 (SF-539) was 38.7 µM (inactive). The GI50 (SK-MEL-28) was 27.7 µM (inactive), the GI50 (SK-MEL-2) was 24.2 µM (inactive) and the GI50 (SK-MEL-5) was 22.9 µM (inactive). For the same molecule, the GI50 (SK-OV-3) was 27.9 µM (inactive), the GI50 (SN12C) was 25.4 µM (inactive) and the GI50 (SNB-19) was 26.4 µM (inactive). For the same molecule, the GI50 (SNB-75) was 26.6 µM (inactive), the GI50 (SR) was 17.7 µM (inactive) and the GI50 (SW-620) was 32.3 µM (inactive). For the same molecule, the GI50 (TK-10) was 30.3 µM (inactive), the GI50 (U-251) was 24.4 µM (inactive) and the GI50 (UACC-257) was 19.6 µM (inactive). For the same molecule, the GI50 (UACC-62) was 19 µM (inactive) and the GI50 (UO-31) was 17.1 µM (inactive).
With `CCOC(=O)C(O)(NC(=O)Nc1ccc(F)cc1)C(F)(F)F` (stereo unspecified) the GI50 (786-0) was > 100 µM (inactive), the GI50 (A498) was > 100 µM (inactive) and the GI50 (A549) was > 100 µM (inactive). The GI50 (ACHN) was > 100 µM (inactive), the GI50 (BT-549) was > 100 µM (inactive) and the GI50 (CAKI-1) was 38.8 µM (inactive). The GI50 (CCRF-CEM) was > 100 µM (inactive), the GI50 (COLO 205) was > 100 µM (inactive) and the GI50 (EKVX) was > 100 µM (inactive). The GI50 (HCC 2998) was > 100 µM (inactive), the GI50 (HCT-116) was > 100 µM (inactive) and the GI50 (HCT-15) was over 100 µM. For the same molecule, the GI50 (HL-60) was > 100 µM (inactive), the GI50 (HT-29) was > 100 µM (inactive) and the GI50 (Hs-578T) was > 100 µM (inactive). For the same molecule, the GI50 (IGROV-1) was > 100 µM (inactive), the GI50 (K562) was > 100 µM (inactive) and the GI50 (LOX IMVI) was > 100 µM (inactive). The GI50 (M14) was > 100 µM (inactive), the GI50 (MDA-MB-435) was > 100 µM (inactive) and the GI50 (MDA-N) was > 100 µM (inactive). The GI50 (MOLT-4) was > 100 µM (inactive), the GI50 (NCI-H23) was > 100 µM (inactive) and the GI50 (NCI/ADR-RES) was > 100 µM (inactive). For the same molecule, the GI50 (OVCAR-5) was > 100 µM (inactive), the GI50 (OVCAR-8) was > 100 µM (inactive) and the GI50 (PC-3) was > 100 µM (inactive). The GI50 (RPMI-8226) was > 100 µM (inactive), the GI50 (RXF 393) was > 100 µM (inactive) and the GI50 (SF-268) was > 100 µM (inactive). The GI50 (SF-539) was > 100 µM (inactive), the GI50 (SK-MEL-28) was > 100 µM (inactive) and the GI50 (SK-MEL-2) was > 100 µM (inactive). For the same molecule, the GI50 (SK-MEL-5) was > 100 µM (inactive), the GI50 (SK-OV-3) was > 100 µM (inactive) and the GI50 (SN12C) was > 100 µM (inactive). The GI50 (SNB-19) was > 100 µM (inactive), the GI50 (SNB-75) was > 100 µM (inactive) and the GI50 (SR) was > 100 µM (inactive). The GI50 (SW-620) was > 100 µM (inactive), the GI50 (T47D) was > 100 µM (inactive) and the GI50 (TK-10) was > 100 µM (inactive). For the same molecule, the GI50 (U-251) was > 100 µM (inactive), the GI50 (UACC-257) was > 100 µM (inactive) and the GI50 (UO-31) was > 100 µM (inactive).
With `CCCSc1ccc2[nH]c(N3C(=O)/C(=C/c4ccccc4)N=C3c3ccccc3)cc2c1` the GI50 (786-0) was 23.3 µM (inactive), the GI50 (A498) was 27 µM (inactive) and the GI50 (A549) was 19.5 µM (inactive). For the same molecule, the GI50 (ACHN) was 39.2 µM (inactive), the GI50 (BT-549) was 19.9 µM (inactive) and the GI50 (CAKI-1) was 27.2 µM (inactive). The GI50 (CCRF-CEM) was 18.4 µM (inactive), the GI50 (COLO 205) was 10.5 µM (inactive) and the GI50 (DU-145) was 35.6 µM (inactive). The GI50 (EKVX) was 19.1 µM (inactive), the GI50 (HCC 2998) was 15.1 µM (inactive) and the GI50 (HCT-116) was 22.4 µM (inactive). The GI50 (HCT-15) was 19.2 µM, the GI50 (HL-60) was 12.1 µM (inactive) and the GI50 (HOP-92) was > 50 µM (inactive). For the same molecule, the GI50 (HT-29) was 16.7 µM (inactive), the GI50 (Hs-578T) was 20.3 µM (inactive) and the GI50 (IGROV-1) was 31.9 µM (inactive). The GI50 (K562) was 14.2 µM (inactive), the GI50 (KM12) was 15.1 µM (inactive) and the GI50 (LOX IMVI) was 20.4 µM (inactive). For the same molecule, the GI50 (M14) was 16.6 µM (inactive), the GI50 (MCF7) was 24.4 µM (inactive) and the GI50 (MDA-MB-435) was 8.3 µM (inactive). The GI50 (MDA-N) was 10.2 µM (inactive), the GI50 (MOLT-4) was 16.3 µM (inactive) and the GI50 (Malme-3M) was 24.2 µM (inactive). For the same molecule, the GI50 (NCI-H23) was 23.5 µM (inactive), the GI50 (NCI-H522) was 12.1 µM (inactive) and the GI50 (NCI/ADR-RES) was 16.9 µM (inactive). The GI50 (OVCAR-4) was 30 µM (inactive), the GI50 (OVCAR-5) was > 50 µM (inactive) and the GI50 (OVCAR-8) was 19.5 µM (inactive). For the same molecule, the GI50 (PC-3) was 23.7 µM (inactive), the GI50 (RPMI-8226) was 12.4 µM (inactive) and the GI50 (RXF 393) was 20 µM (inactive). The GI50 (SF-268) was 18.4 µM (inactive), the GI50 (SF-539) was 18.1 µM (inactive) and the GI50 (SK-MEL-28) was 32.4 µM (inactive). The GI50 (SK-MEL-2) was 0.391 µM (active), the GI50 (SK-MEL-5) was 14.2 µM (inactive) and the GI50 (SN12C) was 30.9 µM (inactive). The GI50 (SNB-19) was 41.4 µM (inactive), the GI50 (SNB-75) was 40.6 µM (inactive) and the GI50 (SR) was 10.5 µM (inactive). The GI50 (SW-620) was 18.7 µM (inactive), the GI50 (T47D) was 22.8 µM (inactive) and the GI50 (UACC-257) was 17 µM (inactive). For the same molecule, the GI50 (UACC-62) was 21.5 µM (inactive) and the GI50 (UO-31) was 42.9 µM (inactive).
